Data as given in patent US20250134938A1 (priority 2023, published 2025).
In brackets after ≈: the same amount, converted by molar mass. Like-named read-outs stand apart in the source and are kept apart here.

Key:
[1] = test system: L. lactis CAB701 strain; assay: Antibiotic resistance by E-test (MIC); assay type: cell-based, Lactococcus lactis subsp. lactis
Procedure: The value at the end of the strip pointed by the inhibitory ring was determined as the minimum inhibitory concentration (MIC).

[2] = molecular target: T1, porcine pancreatic lipase type II (Sus scrofa, UniProt P00591); assay: Inhibition of pancreatic lipase; assay type: biochemical; conditions: 1000 μg/mL; read-out: Pancreatic lipase inhibition rate (%)
T1 construct: purchased Sigma
T1 sequence (P00591 1-450): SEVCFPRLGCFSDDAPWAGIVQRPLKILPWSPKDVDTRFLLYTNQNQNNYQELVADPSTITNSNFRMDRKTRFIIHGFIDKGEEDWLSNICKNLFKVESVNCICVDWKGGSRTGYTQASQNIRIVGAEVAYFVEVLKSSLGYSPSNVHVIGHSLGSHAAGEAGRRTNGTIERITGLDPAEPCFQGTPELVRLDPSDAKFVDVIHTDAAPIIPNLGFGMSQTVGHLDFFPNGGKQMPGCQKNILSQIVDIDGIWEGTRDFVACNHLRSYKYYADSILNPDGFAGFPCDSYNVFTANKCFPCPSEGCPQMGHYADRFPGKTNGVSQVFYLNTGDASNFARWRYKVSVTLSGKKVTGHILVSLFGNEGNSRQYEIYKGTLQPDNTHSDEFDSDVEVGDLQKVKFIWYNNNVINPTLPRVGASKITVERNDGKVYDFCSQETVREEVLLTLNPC
Procedure: 50 mg of porcine pancreatic lipase type II (Sigma) was suspended in 10 mL of 10 mM Tris-HCl buffer adjusted to pH 8.0, vortexed for 15 minutes, and centrifuged at 4000 rpm for 10 minutes at 18° C. The supernatant was used as an enzyme solution. As a substrate, p-nitrophenyl butyrate (Sigma-Aldrich (Schnelldorf, Germany)) dissolved in acetonitrile to 10 mM was used. […] Tertiary distilled water was used as a negative control group. […] After adding 10 μL of a substrate solution, followed by reaction for 5 minutes at 37° C., absorbance was measured using a microplate reader at 405 nm, which is the maximum absorbance of p-nitrophenol. Pancreatic lipase inhibition rate (%)=[(negative control absorbance-sample absorbance)/negative control absorbance]×100

[3] = Lactococcus lactis, CAB701STRAIN, E-test, MRS agar, 37° C., 72 hours, read-out: MIC

| Compound | Evaluation [1] | MIC [1, 3] [µg/mL] | Evaluation ([1]; MIC against EFSA cut-off value) | further results |
| --- | --- | --- | --- | --- |
| CC1(C)S[C@@H]2[C@H](NC(=O)[C@H](N)c3ccccc3)C(=O)N2[C@H]1C(=O)O [Ampicillin] | Allowed | 0.094 (≈ 0.269 µM) | – | – |
| O=C(N[C@H](CO)[C@H](O)c1ccc([N+](=O)[O-])cc1)C(Cl)Cl [Chloramphenicol] | Allowed | 1.5 (≈ 4.64 µM) | – | – |
| CCC[C@@H]1C[C@@H](C(=O)N[C@@H]([C@H]2O[C@H](SC)[C@H](O)[C@@H](O)[C@H]2O)[C@H](C)Cl)N(C)C1 [Clindamycin] | Allowed | 0.25 (≈ 0.588 µM) | – | – |
| CC[C@H]1OC(=O)[C@H](C)[C@@H](O[C@H]2C[C@@](C)(OC)[C@@H](O)[C@H](C)O2)[C@H](C)[C@@H](O[C@@H]2O[C@H](C)C[C@H](N(C)C)[C@H]2O)[C@](C)(O)C[C@@H](C)C(=O)[C@H](C)[C@@H](O)[C@]1(C)O [Erythromycin] | Allowed | – | – | – |
| NC[C@H]1O[C@H](O[C@H]2[C@H](O)[C@@H](O[C@H]3O[C@H](CO)[C@@H](O)[C@H](N)[C@H]3O)[C@H](N)C[C@@H]2N)[C@H](O)[C@@H](O)[C@@H]1O [Kanamycin] | Allowed | 8 (≈ 16.5 µM) | – | – |
| [H]/N=C(/N)N[C@H]1[C@H](O)[C@@H](O)[C@H](O[C@@H]2O[C@@H](C)[C@](O)(C=O)[C@H]2O[C@@H]2O[C@@H](CO)[C@H](O)[C@@H](O)[C@@H]2NC)[C@@H](N/C(N)=N\[H])[C@@H]1O [Streptomycin] | Allowed | 16 (≈ 27.5 µM) | – | – |
| CN(C)[C@@H]1C(O)=C(C(N)=O)C(=O)[C@@]2(O)C(O)=C3C(=O)c4c(O)cccc4[C@@](C)(O)[C@H]3C[C@@H]12 [Tetracycline] | – | 0.094 (≈ 0.212 µM) | Allowed | – |
| CN[C@H](CC(C)C)C(=O)N[C@H]1C(=O)N[C@@H](CC(N)=O)C(=O)N[C@H]2C(=O)N[C@H]3C(=O)N[C@H](C(=O)N[C@H](C(=O)O)c4cc(O)cc(O)c4-c4cc3ccc4O)[C@H](O)c3ccc(c(Cl)c3)Oc3cc2cc(c3O[C@@H]2O[C@H](CO)[C@@H](O)[C@H](O)[C@H]2O[C@H]2C[C@](C)(N)[C@H](O)[C@H](C)O2)Oc2ccc(cc2Cl)[C@H]1O [Vancomycin] | – | – | Allowed | MIC ([1]; Lactococcus lactis, CAB701STRAIN, 72 h): 0.38 µg/mL (≈ 0.262 µM) |
| CCCCCCCCCCC[C@@H](C[C@@H]1OC(=O)[C@H]1CCCCCC)OC(=O)[C@H](CC(C)C)NC=O [orlistat] | – | – | – | inhibition at 1000 µg/mL (stock) [2]: 28.6 ± 6.2% |
| Gentamicin | – | – | Allowed | minimum inhibitory concentration (MIC) ([1]; E-test): 3 µg/mL; MIC ([1]; E-test, MRS agar, 37° C., 72 hours): 3 µg/mL |
